Measurements as given in publication PMC6382835, “A critical evaluation of TRPA1-mediated locomotor behavior in zebrafish as a screening tool for novel anti-nociceptive drug discovery” (Scientific Reports, 2019).

Target: T1, zebrafish TRPA1b (zTRPA1b) (Danio rerio, UniProt A0A8M1N2Z4)
T1 sequence (A0A8M1N2Z4 1-1120): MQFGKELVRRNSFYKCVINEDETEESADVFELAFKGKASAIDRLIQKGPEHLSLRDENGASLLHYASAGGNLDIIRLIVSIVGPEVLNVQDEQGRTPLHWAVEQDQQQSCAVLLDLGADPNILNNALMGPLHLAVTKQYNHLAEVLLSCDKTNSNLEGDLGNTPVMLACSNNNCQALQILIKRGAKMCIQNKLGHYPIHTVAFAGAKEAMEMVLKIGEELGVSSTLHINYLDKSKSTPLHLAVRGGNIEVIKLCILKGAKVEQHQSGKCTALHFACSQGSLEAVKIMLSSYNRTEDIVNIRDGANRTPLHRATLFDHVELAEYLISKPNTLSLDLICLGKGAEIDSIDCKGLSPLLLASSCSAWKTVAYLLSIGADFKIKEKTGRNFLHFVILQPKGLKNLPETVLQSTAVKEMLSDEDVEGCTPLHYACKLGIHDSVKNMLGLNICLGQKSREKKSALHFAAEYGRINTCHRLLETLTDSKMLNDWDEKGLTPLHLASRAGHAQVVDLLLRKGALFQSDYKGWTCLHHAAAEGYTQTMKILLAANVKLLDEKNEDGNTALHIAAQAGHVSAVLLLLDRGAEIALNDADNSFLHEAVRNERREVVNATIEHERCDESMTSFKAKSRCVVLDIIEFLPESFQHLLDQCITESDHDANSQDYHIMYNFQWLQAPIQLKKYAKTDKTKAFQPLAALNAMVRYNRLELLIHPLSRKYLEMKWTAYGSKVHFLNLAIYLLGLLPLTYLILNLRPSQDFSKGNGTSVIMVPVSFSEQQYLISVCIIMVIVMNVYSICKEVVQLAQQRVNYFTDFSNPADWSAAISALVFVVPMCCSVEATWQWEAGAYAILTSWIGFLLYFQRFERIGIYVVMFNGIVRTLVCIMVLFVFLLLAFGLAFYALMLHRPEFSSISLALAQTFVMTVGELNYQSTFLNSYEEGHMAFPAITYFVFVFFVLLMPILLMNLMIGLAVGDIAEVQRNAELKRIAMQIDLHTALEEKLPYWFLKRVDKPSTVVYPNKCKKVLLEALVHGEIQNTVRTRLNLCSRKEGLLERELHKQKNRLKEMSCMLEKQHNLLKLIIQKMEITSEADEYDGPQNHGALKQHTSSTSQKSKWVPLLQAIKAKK
Experiment: FLIPR calcium signaling assay in zTRPA1b-transfected HEK293 cells
Assay type: cell-based
Conditions: for EC50: agonist calcium influx, zTRPA1b-transfected HEK293, read-out: EC50 (potency in µM)
Description: The cells were maintained in a 37 °C incubator with consistent 5% CO2. […] Experiments were carried out with the approval of the Institutional Biohazard Committee (#13-013-16).
Twenty-five µl calcium sensitive Fluorescent Imaging Plate Reader (FLIPR) Calcium 6 assay dye (#R8190, Molecular Devices, CA, USA) was added to each well of a 384-well plate containing HEK293 cells transiently expressing mTRPA1, zTRPA1a, and zTRPA1b, respectively. The cells were incubated for an hour prior to the recording of intracellular calcium levels in a FlexStation3 Multi-Mode Microplate Reader (#R8190, Molecular Devices) as previously described. […] During the assay, the cells were challenged by a 5x ASP7663 solution or 1% DMSO solution at the 20 seconds time point, and both solutions were diluted in calcium buffer. Relative fluorescence units (RFU) were measured for 120 seconds period by the Flexstation. […] For each specific antagonist concentration we plotted Log(dose ratio-1) against the antagonist concentration in a Schild plot. The dose ratio (A’/A) equals the EC50 of the agonist (ASP7665) in the presence of a concentration of the antagonist (A’) divided by the EC50 of the agonist in the absence of antagonist (A). The x-intercept of the Schild plot was used to identify the antagonist-receptor affinity (pA2).
All data are presented as means ± standard error of the mean (SEM). For our in vitro statistical analysis, AUC of calcium influx (RFU) was measured to plot dose-response curves, which were further analyzed by nonlinear regression analysis. Mean RFU of the first 10 seconds was used as a baseline of the AUC. EC50 values of the dose-response curves were further used to plot Schild curves, and the curves were analyzed with linear regression analysis. For the mice von Frey test, mechanical thresholds were analyzed with two-way ANOVA followed by a Bonferonni test for multiple comparison analysis. For the zebrafish behavior test, the data from the first five seconds following drug administration were excluded, as zebrafish displacement during that period was highly influenced by liquid dispensing. AUC of all curves were measured and analyzed by one-way ANOVA. The post-hoc analysis was conducted with the Tukey’s or Dunnett’s multiple comparisons unless it stated otherwise. […] For our time-course average displacement graph, we used 2nd degree polynomial smoothing for a better representation; however, we used data before smoothing for all statistical analysis and quantification. All in vitro and in vivo data were evaluated using GraphPad Prism 7 (GraphPad Software, La Jolla, CA) unless it stated otherwise.

SMILES | EC50 [µM] | calcium influx by antagonist alone (316 µM, zTRPA1b-transfected cells) | pA2 expressed in µM (Schild plot against ASP7663-mediated calcium influx, zTRPA1b) [µM] | pA2 (Schild plot against ASP7663-mediated calcium influx, zTRPA1b, only two antagonist doses) | Schild slope (zTRPA1b, n = 2)
C=CCN=C=S [AITC, allyl isothiocyanate] | 35.4 |  |  |  | 
CC(C)CN1C(=O)/C(=C/C(=O)O)c2cccc(F)c21 [ASP7663] | 99 |  |  |  | 
CC(C)c1ccc(NC(=O)Cn2cnc3c2c(=O)n(C)c(=O)n3C)cc1 [HC-030031] |  | could produce an influx of intracellular calcium | 27.1 | 4.6 ± 0.3 | 0.83 ± 0.05
